US10111822B2, “External dermal composition for anti-ageing and method for producing the same” (Hayashibara Co., Ltd., priority 2012, dated 2018)

System: Filaggrin
Experiment: Expression of proliferation marker protein filaggrin in NHEK cells (Western)
Format: cell-based, human
Details: 5 days, control regarded as 50%
Procedure: Normal human epidermal keratinocytes from neonatal foreskin (NHEK cells) were prepared into 2.5×10^5 cells/mL with EpiLife medium, inoculated to 12-well plates in a volume of 1 mL/well, and cultured at 37° C. for one day under a 5% v/v CO2 condition. Thereafter, each supernatant was removed, and a medium, to which ascorbic acid 2-glucoside had been added to give a final concentration of 300 or 600 μM, was added to the resulting cells in a volume of 1 mL/well, followed by culturing the cells at 37° C. for two days under a 5% v/v CO2 condition. Another cell culture system, which had been similarly cultured in a medium free of ascorbic acid 2-glucoside, was provided as a control. The cells cultured with ascorbic acid 2-glucoside were further added with a medium supplemented with the same concentration of sodium salt of ascorbic acid 2-glucoside as that in the above medium in a volume of 1 mL/well, and cultured for another three days under the same conditions. […] Each of the resulting extract was centrifuged to collect a supernatant, and a part of which was subjected to protein quantification. […]

O=C1O[C@H]([C@@H](O)CO)C(O)=C1O[C@H]1O[C@H](CO)[C@@H](O)[C@H](O)[C@H]1O [ascorbic acid 2-glucoside, 2-O-α-D-glucosyl-L-ascorbic acid]
Relative expression level, Filaggrin (300 μM): 65%
Relative expression level, Filaggrin (600 μM): 71%
